Assay results taken from ChEMBL document CHEMBL1909046, “DrugMatrix in vitro pharmacology data”.

Tests used:
[1] = biological target: Beta-3 adrenergic receptor (Homo sapiens, UniProt P13945); assay: DRUGMATRIX: Adrenergic beta3 radioligand binding (ligand: [125I] Cyanopindolol); format: cell membranes, Membrane; settings: hek293; Not Active = under 50% inhibition at 10 µM
[2] = biological target: T1, Type-2 angiotensin II receptor (Homo sapiens, UniProt P50052); format: cell-based; settings: cho-k1; note: in other assays of this panel Not Active means under 50% inhibition at 10 µM
T1 sequence (P50052 whole entry): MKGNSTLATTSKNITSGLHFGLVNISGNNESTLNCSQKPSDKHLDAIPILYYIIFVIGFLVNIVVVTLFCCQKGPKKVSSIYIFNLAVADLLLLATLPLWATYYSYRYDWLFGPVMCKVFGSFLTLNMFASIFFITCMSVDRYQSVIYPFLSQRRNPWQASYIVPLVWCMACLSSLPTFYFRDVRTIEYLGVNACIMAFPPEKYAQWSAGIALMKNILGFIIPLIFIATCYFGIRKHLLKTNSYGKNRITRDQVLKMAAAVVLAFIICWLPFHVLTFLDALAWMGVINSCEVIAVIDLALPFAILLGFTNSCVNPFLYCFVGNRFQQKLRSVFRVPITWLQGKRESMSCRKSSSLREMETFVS

B2 bradykinin receptor = biological target: T2, B2 bradykinin receptor (Homo sapiens, UniProt P30411); format: cell membranes, Membrane; settings: chem-1; note: in other assays of this panel Not Active means under 50% inhibition at 10 µM
T2 sequence (P30411 whole entry): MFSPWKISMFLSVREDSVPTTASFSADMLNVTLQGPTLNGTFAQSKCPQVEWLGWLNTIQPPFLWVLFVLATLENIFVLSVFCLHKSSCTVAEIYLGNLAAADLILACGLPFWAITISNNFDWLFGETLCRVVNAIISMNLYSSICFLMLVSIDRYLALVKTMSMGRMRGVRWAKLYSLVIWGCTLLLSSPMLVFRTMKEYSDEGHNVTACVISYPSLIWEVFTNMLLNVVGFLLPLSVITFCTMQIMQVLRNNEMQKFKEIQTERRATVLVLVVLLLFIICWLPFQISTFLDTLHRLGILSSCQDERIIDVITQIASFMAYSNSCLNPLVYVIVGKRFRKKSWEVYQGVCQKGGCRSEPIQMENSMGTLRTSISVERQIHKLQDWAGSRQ

[3] = biological target: Vascular endothelial growth factor receptor 1 (Homo sapiens, UniProt P17948); format: cell-based; settings: huvec; note: in other assays of this panel Not Active means under 50% inhibition at 10 µM
[4] = DRUGMATRIX: Platelet-Derived Growth Factor (PDGF) radioligand binding (ligand: [125I] PDGF); format: cell-based; settings: nih3t3; Not Active = under 50% inhibition at 10 µM
[5] = DRUGMATRIX: Potassium Channel [KATP] radioligand binding (ligand: [3H] Glyburide); format: cell membranes, Membrane; settings: hit-t15; Not Active = under 50% inhibition at 10 µM
Interstitial collagenase = biological target: T3, Interstitial collagenase (Homo sapiens, UniProt P03956); assay: biochemical; format: tissue-based, Rheumatoid synovial fibroblasts;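 note: MMP-1 enzyme inhibition assay using a peptide substrate; in other assays of this panel Not Active means under 50% inhibition at 10 µM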
T3 sequence (P03956 whole entry): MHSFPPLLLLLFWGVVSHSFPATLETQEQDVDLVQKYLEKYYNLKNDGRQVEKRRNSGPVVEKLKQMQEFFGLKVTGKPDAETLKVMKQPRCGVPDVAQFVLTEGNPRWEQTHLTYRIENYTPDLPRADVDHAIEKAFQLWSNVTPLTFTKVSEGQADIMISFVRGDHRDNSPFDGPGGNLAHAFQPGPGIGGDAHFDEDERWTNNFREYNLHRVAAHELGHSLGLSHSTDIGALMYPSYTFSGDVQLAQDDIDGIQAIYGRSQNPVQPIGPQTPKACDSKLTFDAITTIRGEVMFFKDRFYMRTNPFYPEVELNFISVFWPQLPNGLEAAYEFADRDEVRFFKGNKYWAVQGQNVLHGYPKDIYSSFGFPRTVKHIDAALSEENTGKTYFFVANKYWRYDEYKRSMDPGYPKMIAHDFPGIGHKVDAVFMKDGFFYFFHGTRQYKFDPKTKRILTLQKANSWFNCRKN

Cytochrome P450 2A6 = biological target: T4, Cytochrome P450 2A6 (Homo sapiens, UniProt P11509); settings: bti-tn-5b1-4; note: in other assays of this panel Not Active means under 50% inhibition at 10 µM
T4 sequence (P11509 whole entry): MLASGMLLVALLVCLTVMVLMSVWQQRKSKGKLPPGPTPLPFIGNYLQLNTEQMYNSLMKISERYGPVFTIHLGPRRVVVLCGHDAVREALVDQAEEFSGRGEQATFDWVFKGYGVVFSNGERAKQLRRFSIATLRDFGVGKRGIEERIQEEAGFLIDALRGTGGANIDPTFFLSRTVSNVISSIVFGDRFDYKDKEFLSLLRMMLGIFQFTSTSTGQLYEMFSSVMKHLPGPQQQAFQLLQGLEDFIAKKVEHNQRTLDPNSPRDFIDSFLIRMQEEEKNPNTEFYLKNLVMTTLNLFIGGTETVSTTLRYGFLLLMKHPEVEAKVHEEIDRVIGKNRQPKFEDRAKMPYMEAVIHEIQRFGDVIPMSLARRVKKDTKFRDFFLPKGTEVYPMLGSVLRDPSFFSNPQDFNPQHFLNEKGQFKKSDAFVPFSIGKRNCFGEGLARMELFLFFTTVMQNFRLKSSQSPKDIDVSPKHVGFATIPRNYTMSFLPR

Beta-3 adrenergic receptor, sequence (P13945 whole entry): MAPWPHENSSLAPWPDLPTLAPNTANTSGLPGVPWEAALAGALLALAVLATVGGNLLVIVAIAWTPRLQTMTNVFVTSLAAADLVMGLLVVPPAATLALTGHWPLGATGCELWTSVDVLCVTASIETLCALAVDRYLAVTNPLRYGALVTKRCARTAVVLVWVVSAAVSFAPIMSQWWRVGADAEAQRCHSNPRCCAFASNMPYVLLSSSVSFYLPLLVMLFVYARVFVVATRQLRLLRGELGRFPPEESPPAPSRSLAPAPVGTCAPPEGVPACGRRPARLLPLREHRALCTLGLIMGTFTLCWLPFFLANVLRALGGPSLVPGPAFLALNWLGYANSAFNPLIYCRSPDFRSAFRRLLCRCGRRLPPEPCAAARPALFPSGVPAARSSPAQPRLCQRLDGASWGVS
Vascular endothelial growth factor receptor 1, sequence (P17948 whole entry): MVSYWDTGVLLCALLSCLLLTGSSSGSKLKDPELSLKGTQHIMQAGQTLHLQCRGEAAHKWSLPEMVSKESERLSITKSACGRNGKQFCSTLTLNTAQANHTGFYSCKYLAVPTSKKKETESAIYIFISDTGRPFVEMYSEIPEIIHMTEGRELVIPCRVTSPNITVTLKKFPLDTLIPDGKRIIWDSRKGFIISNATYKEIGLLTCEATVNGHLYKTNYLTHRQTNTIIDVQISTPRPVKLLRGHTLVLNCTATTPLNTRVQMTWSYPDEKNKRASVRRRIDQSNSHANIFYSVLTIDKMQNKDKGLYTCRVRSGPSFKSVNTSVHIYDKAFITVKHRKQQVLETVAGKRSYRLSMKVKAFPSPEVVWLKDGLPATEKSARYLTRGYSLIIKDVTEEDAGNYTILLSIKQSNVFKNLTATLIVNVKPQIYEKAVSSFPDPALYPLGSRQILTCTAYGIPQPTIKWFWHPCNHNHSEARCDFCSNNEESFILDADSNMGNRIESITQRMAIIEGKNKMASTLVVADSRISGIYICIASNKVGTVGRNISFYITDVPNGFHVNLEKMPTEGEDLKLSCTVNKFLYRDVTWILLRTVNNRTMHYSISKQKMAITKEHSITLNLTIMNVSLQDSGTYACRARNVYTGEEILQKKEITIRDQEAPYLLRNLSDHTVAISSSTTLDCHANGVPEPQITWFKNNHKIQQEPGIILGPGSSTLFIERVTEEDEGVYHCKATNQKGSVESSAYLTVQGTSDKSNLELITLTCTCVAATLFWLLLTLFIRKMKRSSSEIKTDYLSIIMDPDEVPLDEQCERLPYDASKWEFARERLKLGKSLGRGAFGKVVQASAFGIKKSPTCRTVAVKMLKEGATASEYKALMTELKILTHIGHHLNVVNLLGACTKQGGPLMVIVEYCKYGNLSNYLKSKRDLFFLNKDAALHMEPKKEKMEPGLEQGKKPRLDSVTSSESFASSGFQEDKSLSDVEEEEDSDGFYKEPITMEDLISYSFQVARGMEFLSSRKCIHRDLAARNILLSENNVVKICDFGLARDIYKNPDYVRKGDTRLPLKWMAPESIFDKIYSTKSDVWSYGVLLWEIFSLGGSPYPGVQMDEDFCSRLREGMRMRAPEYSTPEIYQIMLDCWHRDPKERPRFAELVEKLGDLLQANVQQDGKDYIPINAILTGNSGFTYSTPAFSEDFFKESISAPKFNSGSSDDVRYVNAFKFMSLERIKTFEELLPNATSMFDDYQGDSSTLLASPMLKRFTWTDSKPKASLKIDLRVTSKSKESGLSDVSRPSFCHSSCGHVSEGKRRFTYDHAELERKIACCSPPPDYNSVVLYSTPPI

Cc1ccc(S(=O)(=O)NC(=O)NN2CC3CCCC3C2)cc1 (stereo not drawn) [GLICLAZIDE]
Not Active: IC50 [1] | IC50 [2] | IC50 (B2 bradykinin receptor) | IC50 [3] | IC50 [4] | Ki [4] | IC50 [5] | Ki [5] | IC50 (Interstitial collagenase) | IC50 (Cytochrome P450 2A6) | Ki (Cytochrome P450 2A6)

COc1cccc2c1C(=O)c1c(O)c3c(c(O)c1C2=O)C[C@@](O)(C(=O)CO)C[C@@H]3O[C@H]1C[C@H](N)[C@H](O)[C@H](C)O1 [DOXORUBICIN]
Not Active: IC50 [1] | IC50 [2] | IC50 (B2 bradykinin receptor) | IC50 [3] | IC50 [4] | Ki [4] | IC50 [5] | Ki [5] | IC50 (Interstitial collagenase) | IC50 (Cytochrome P450 2A6) | Ki (Cytochrome P450 2A6)

Cn1c(=O)c2c(ncn2CC2OCCO2)n(C)c1=O [DOXOFYLLINE]
Not Active: IC50 [1] | IC50 [2] | IC50 (B2 bradykinin receptor) | IC50 [3] | IC50 [4] | Ki [4] | IC50 [5] | Ki [5] | IC50 (Interstitial collagenase) | IC50 (Cytochrome P450 2A6) | Ki (Cytochrome P450 2A6)

Cc1cc2cc3c(C)cc(=O)oc3c(C)c2o1 [TRIOXSALEN]
Not Active: IC50 [1] | IC50 [2] | IC50 (B2 bradykinin receptor) | IC50 [3] | IC50 [4] | Ki [4] | IC50 [5] | Ki [5] | IC50 (Interstitial collagenase) | IC50 (Cytochrome P450 2A6) | Ki (Cytochrome P450 2A6)

Cc1ncc([N+](=O)[O-])n1CCO [METRONIDAZOLE]
Not Active: IC50 [1] | IC50 [2] | IC50 (B2 bradykinin receptor) | IC50 [3] | IC50 [4] | Ki [4] | IC50 [5] | Ki [5] | IC50 (Interstitial collagenase) | IC50 (Cytochrome P450 2A6) | Ki (Cytochrome P450 2A6)

OC(CCN1CCCCC1)(c1ccccc1)C1CCCCC1 (stereo not drawn) [TRIHEXYPHENIDYL]
Not Active: IC50 [1] | IC50 [2] | IC50 (B2 bradykinin receptor) | IC50 [3] | IC50 [4] | Ki [4] | IC50 [5] | Ki [5] | IC50 (Interstitial collagenase) | IC50 (Cytochrome P450 2A6) | Ki (Cytochrome P450 2A6)

O=C(C1CCCCC1)N1CC(=O)N2CCc3ccccc3C2C1 (stereo not drawn) [PRAZIQUANTEL]
Not Active: IC50 [1] | IC50 [2] | IC50 (B2 bradykinin receptor) | IC50 [3] | IC50 [4] | Ki [4] | IC50 [5] | Ki [5] | IC50 (Interstitial collagenase) | IC50 (Cytochrome P450 2A6) | Ki (Cytochrome P450 2A6)

C=C1CC[C@H](O)C/C1=C/C=C1\CCC[C@]2(C)[C@@H]([C@H](C)CCCC(C)C)CC[C@@H]12 [CHOLECALCIFEROL]
Not Active: IC50 [1] | IC50 [2] | IC50 (B2 bradykinin receptor) | IC50 [3] | IC50 [4] | Ki [4] | IC50 [5] | Ki [5] | IC50 (Interstitial collagenase) | IC50 (Cytochrome P450 2A6) | Ki (Cytochrome P450 2A6)

CC(=O)OCC(=O)[C@@]1(O)CC[C@H]2[C@@H]3CCC4=CC(=O)CC[C@]4(C)[C@H]3C(=O)C[C@@]21C [CORTISONE ACETATE]
Not Active: IC50 [1] | IC50 [2] | IC50 (B2 bradykinin receptor) | IC50 [3] | IC50 [4] | Ki [4] | IC50 [5] | Ki [5] | IC50 (Interstitial collagenase) | IC50 (Cytochrome P450 2A6) | Ki (Cytochrome P450 2A6)

COc1ccc2[nH]c([S+]([O-])Cc3ncc(C)c(OC)c3C)nc2c1 (stereo not drawn) [OMEPRAZOLE]
Not Active: IC50 [1] | IC50 [2] | IC50 (B2 bradykinin receptor) | IC50 [3] | IC50 [4] | Ki [4] | IC50 [5] | Ki [5] | IC50 (Interstitial collagenase) | IC50 (Cytochrome P450 2A6) | Ki (Cytochrome P450 2A6)

C[C@@]12C(=O)OC(=O)[C@]1(C)[C@H]1CC[C@@H]2O1 [CANTHARIDIN]
Not Active: IC50 [1] | IC50 [2] | IC50 (B2 bradykinin receptor) | IC50 [3] | IC50 [4] | Ki [4] | IC50 [5] | Ki [5] | IC50 (Interstitial collagenase) | IC50 (Cytochrome P450 2A6) | Ki (Cytochrome P450 2A6)

Nc1c(CC(=O)O)cccc1C(=O)c1ccc(Br)cc1 [BROMFENAC]
Not Active: IC50 [1] | IC50 [2] | IC50 (B2 bradykinin receptor) | IC50 [3] | IC50 [4] | Ki [4] | IC50 [5] | Ki [5] | IC50 (Interstitial collagenase) | IC50 (Cytochrome P450 2A6) | Ki (Cytochrome P450 2A6)

C[C@H]1O[C@@H](O[C@H]2[C@@H](O)C[C@H](O[C@H]3[C@@H](O)C[C@H](O[C@H]4CC[C@@]5(C)[C@H](CC[C@@H]6[C@@H]5CC[C@]5(C)[C@@H](C7=CC(=O)OC7)CC[C@]65O)C4)O[C@@H]3C)O[C@@H]2C)C[C@H](O)[C@@H]1O [DIGITOXIN]
Not Active: IC50 [1] | IC50 [2] | IC50 (B2 bradykinin receptor) | IC50 [3] | IC50 [4] | Ki [4] | IC50 [5] | Ki [5] | IC50 (Interstitial collagenase) | IC50 (Cytochrome P450 2A6) | Ki (Cytochrome P450 2A6)

C[N+](C)(C)CCO.[Cl-] [CHOLINE CHLORIDE]
Not Active: IC50 [1] | IC50 [2] | IC50 (B2 bradykinin receptor) | IC50 [3] | IC50 [4] | Ki [4] | IC50 [5] | Ki [5] | IC50 (Interstitial collagenase) | IC50 (Cytochrome P450 2A6) | Ki (Cytochrome P450 2A6)

CN(C)c1ccc(C(=C2C=CC(=[N+](C)C)C=C2)c2ccc(N(C)C)cc2)cc1.[Cl-] [GENTIAN VIOLET]
Not Active: IC50 [1] | IC50 [2] | IC50 (B2 bradykinin receptor) | IC50 [3] | IC50 [4] | Ki [4] | IC50 [5] | Ki [5] | IC50 (Interstitial collagenase) | IC50 (Cytochrome P450 2A6) | Ki (Cytochrome P450 2A6)

O=S(=O)([O-])CCS.[Na+] [MESNA]
Not Active: IC50 [1] | IC50 [2] | IC50 (B2 bradykinin receptor) | IC50 [3] | IC50 [4] | Ki [4] | IC50 [5] | Ki [5] | IC50 (Interstitial collagenase) | IC50 (Cytochrome P450 2A6) | Ki (Cytochrome P450 2A6)

O=C(O)Cc1ccccc1Nc1c(Cl)cccc1Cl [DICLOFENAC]
Not Active: IC50 [1] | IC50 [2] | IC50 (B2 bradykinin receptor) | IC50 [3] | IC50 [4] | Ki [4] | IC50 [5] | Ki [5] | IC50 (Interstitial collagenase) | IC50 (Cytochrome P450 2A6) | Ki (Cytochrome P450 2A6)

COc1ccccc1C(=O)N1CCC(Cc2ccccc2)CC1
Not Active: IC50 [1] | IC50 [2] | IC50 (B2 bradykinin receptor) | IC50 [3] | IC50 [4] | Ki [4] | IC50 [5] | Ki [5] | IC50 (Interstitial collagenase) | IC50 (Cytochrome P450 2A6) | Ki (Cytochrome P450 2A6)
